Measurements reported in US20070219248A1, “Salt of Oxalic Acid with -[4[2-(N-Methyl-N-(2-Pyridyl)-Amino)Ethoxy]Benzyl]Thiazolidin-2,4- Dione and a Method of its Preparation and its Use” (priority 2004, published 2007).
“Also recorded” adds a separate entry of the source. Counter-ions that a name gives are not always drawn.

How the values were obtained:
[1] = Solubility of rosiglitazone salts in 0.1 M hydrochloric acid (Example 7); type: physicochemical; conditions: 1 g salt
Text: Contrary to some other salts of rosiglitazone, the above-described crystalline salt of formula III is well soluble in water and in aqueous solutions of hydrochloric acid. Especially the solubility in solutions of hydrochloric acid is very important considering the acidobasic conditions in the digestive system (especially in the stomach). It offers indication of the solubility of the substance after it is digested, which is a very important factor for evaluating pharmaceutical effectiveness of the substance. A comparison of the solubility of the salt of the compound of formula III in acidic environment with some of several other rosiglitazone salts is documented in Example 7. […] However, neither the same amount of rosiglitazone hydrochloride prepared according to WO 2000/063205 nor the same amount of pharmaceutically used rosiglitazone maleate of formula II prepared according to WO 94/05659 could be dissolved under the same conditions.
Solubility was determined for crystalline rosiglitazone oxalate of chemical formula III, which was prepared by the procedure according to Example 1. 1 g of crystalline salt of formula III was dissolved under stirring and at 25° C. in 20, 30, 35 a 40 ml of a 0.1M solution of hydrochloric acid. The mixture was stirred at 25° C. for five minutes. When using 20 and 30 ml of the solvent, there was obtained no solution.

[2] = Solubility in water and aqueous hydrochloric acid, stated only in words; type: physicochemical; conditions: crystalline form

SMILES | Dissolution of the same amount (1 g) at the same conditions ([1]; 20 to 40 ml 0.1M hydrochloric acid, 25° C., stirred five minutes) | Dissolution after extension of the time and another dilution ([1]; extended dissolution time, further dilution with 0.1 M hydrochloric acid) | Dissolution of 1 g of salt in 20 ml of solvent ([1]; 20 ml 0.1M hydrochloric acid, 25° C., stirred five minutes) | Dissolution of 1 g of salt in 30 ml of solvent ([1]; 30 ml 0.1M hydrochloric acid, 25° C., stirred five minutes) | Dissolution of 1 g of salt in 35 ml of solvent ([1]; 35 ml 0.1M hydrochloric acid, 25° C., stirred five minutes) | Dissolution of 1 g of salt in 40 ml of solvent ([1]; 40 ml 0.1M hydrochloric acid, 25° C., stirred five minutes) | Solubility in water and in aqueous solutions of hydrochloric acid [2]
CN(CCOc1ccc(CC2SC(=O)NC2=O)cc1)c1ccccn1 (stereo not shown) [rosiglitazone maleate, reference compound] | neither dissolving | No solutions could be obtained |  |  |  |  | 
CN(CCOc1ccc(CC2SC(=O)NC2=O)cc1)c1ccccn1 (stereo not shown) [III] |  |  | no solution | no solution | cloudy solution | completely dissolved; also recorded: no cloudy solution | well soluble
